Assay results as given in patent US20070197619A1, “Ion Channel Modulators” (priority 2004, published 2007).

System: calcium channel (e.g., L-type, N-type, etc.)
Experiment: HEK assay, whole-cell patch clamp of transiently transfected HEK-293T/17 cells
Assay type: cell-based
Conditions: whole-cell voltage clamp, holding potential −100 mV
Experimental: HEK-293T/17 cells are transiently transfected in a similar manner as described in FuGENE 6 Package Insert Version 7, April 2002, Roche Applied Science, Indianapolis, Ind. The cells are plated at 2.5×10^5 cells in 2 mL in a 6-well plate in incubator for one night and achieve a 30˜40% confluence. In a small sterile tube, add sufficient serum-free medium as diluent for FuGENE Transfection Reagent (Roche Applied Science, Indianapolis, Ind.), to a total volume of 100 μL. Add 3 μL of FuGENE 6 Reagent directly into this medium. The mixture is tapped gently to mix. 2 μg of DNA solution (0.8-2.0 μg/μL) is added to the prediluted FuGENE 6 Reagent from above. The DNA/Fugene 6 mixture is gently pipeted to mix the contents and incubated for about 15 minutes at room temperature. The complex mixture is then added to the HEK-293T/17 cells, distributing it around the well, and swirled to ensure even dispersal. The cells are returned to the incubator for 24 hrs. The transfected cells are then replated at density 2.5×10^5 in a 35 mm dish with 5 glass coverslips and grow in low serum (1%) media for 24 hrs. Coverslips with isolated cells are then transferred into chamber and calcium channel (e.g., L-type, N-type, etc.) current or other currents for counter screening are recorded from the transiently transfected HEK-293T/17 cells. […]

SMILES: CN(Cc1nc(CNc2ccc(F)cc2)cn1-c1ccc(Cl)cc1)c1ccc(F)cc1 [Compound 5]
- IC50: 135 nM

SMILES: CN(Cc1nc(CN2CCCC2)cn1-c1ccc(Cl)cc1)c1ccc(F)cc1 [Compound 6]
- IC50: 2690 nM
